In PMC10997663, “Mechano-sensitivity of β2-adrenoceptors enhances constitutive activation of cAMP generation that is inhibited by inverse agonists” (Communications Biology, 2024):
Read-outs that look alike come from different tables or passages of the source.

Key:
[1] = target: T1, β2-adrenoceptor (β2AR) (Homo sapiens, UniProt P07550); assay: NanoBRET saturation binding in live HEK293G cells; type: cell-based
T1 construct: gene ADRB2; HiBiT-β2AR (N-terminal HiBiT tag), complemented with LgBiT

[2] = test system: β2-adrenoceptor (β2AR); assay: cells; design: species or system HEK293G overexpressing TS-SNAP-β2AR; GloSensor cAMP luminescence; inverse agonist inhibition of the peak basal (mechanically stimulated) response; conditions: HEK293G, read-out: % of control remaining
Description: (§1) Four inverse agonists were evaluated as inhibitors of the basal GloSensor^TM response in HEK293G cells overexpressing the TS-SNAP-β2AR (Fig. 3). […] Each inverse agonist was added immediately following an initial luminescence read at time zero. The plate therefore entered the PheraStar at time zero, was then removed for the addition of inverse agonist or HBSS and measurements were made again at t = 1 min and every minute thereafter. Values are mean ± SEM of five independent experiments.

[3] = test system: β2-adrenoceptor (β2AR); assay: cells; design: species or system HEK293G overexpressing TS-SNAP-β2AR; GloSensor cAMP luminescence; inverse agonist inhibition of the peak basal (mechanically stimulated) response; conditions: HEK293G, read-out: % of control remaining; remark: listed apart in the source
Description: as §1

T1 sequence (P07550 whole entry): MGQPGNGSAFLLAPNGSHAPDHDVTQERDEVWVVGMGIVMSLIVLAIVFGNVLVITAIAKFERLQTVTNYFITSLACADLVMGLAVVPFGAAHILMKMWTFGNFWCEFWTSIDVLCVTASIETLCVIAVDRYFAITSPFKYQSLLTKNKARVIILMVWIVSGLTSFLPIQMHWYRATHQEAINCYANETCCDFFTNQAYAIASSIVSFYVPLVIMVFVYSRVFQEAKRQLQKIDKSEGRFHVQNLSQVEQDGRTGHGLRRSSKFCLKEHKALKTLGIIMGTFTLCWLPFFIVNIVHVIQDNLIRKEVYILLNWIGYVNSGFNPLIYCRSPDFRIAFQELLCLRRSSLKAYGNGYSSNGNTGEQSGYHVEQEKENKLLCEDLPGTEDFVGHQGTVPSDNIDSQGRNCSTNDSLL

| SMILES | Kd [1] | activity at 10 µM [2] | activity at 10 µM [3] |
| --- | --- | --- | --- |
| Cc1ccc(OCC(O)C(C)NCCNC(=O)CCNC(=O)CCNC(=O)CCCCCNC(=O)COc2ccc(C=CC3=[N+]4C(=Cc5ccc(-c6cccs6)n5[B-]4(F)F)C=C3)cc2)c2c1CCC2 (stereo not drawn) [ICI-118551-βAla-βAla-BODIPY-X-630/650] | 32.6 ± 7.42 nM |  |  |
| COc1ccccc1OCCNCC(O)COc1cccc2[nH]c3ccccc3c12 (stereo not drawn) [carvedilol] |  | 54 ± 10.6% | 41.1 ± 4.32% |
